Structures are written as SMILES. Read-outs that look alike come from different tables or passages of the source.

One data set relates to A2780 cells. The data set is described as follows: Annexin V-FITC apoptosis assay, A2780. The data set is classed as cell-based, human. The conditions noted are these: A2780, 50 μM, 24 hrs. The method, then:
ART- and DHA-induced apoptosis alone or in combination with gemcitabine in HepG2 and Hep3B cells or in combination with carboplatin in ovarian cancer cells may be determined by flow cytometry using the Annexin V-FITC Apoptosis Detection kit following the manufacturer's instructions. […] The cells may then be harvested, washed in PBS, and incubated with Annexin V and propidium iodide for staining in binding buffer at room temperature for 10 min in the dark. The stained cells may be analyzed using the FACSAria instrument.

The test system of another data set is A2780 xenograft tumors. The data set is classed as in vivo. The conditions noted are these: for tumor growth inhibition: A2780 xenograft, 5 days/week. The method, then:
Four to six week old female athymic nude mice (BALB/c, nu/nu) may be purchased from Shanghai Experimental Animal Center (Shanghai, China). Animal studies are approved by the Institute for Nutritional Sciences. The tumor xenograft model may be established as follows. […] Aliquots of cells (˜5×10^6 cells/0.2 ml) may be injected subcutaneously into the left inguinal area of the mice. The tumor growth and body weight of the mice may be monitored every other day. Tumor mass may be determined. Mice bearing palpable tumors (˜70 mg) may be randomly divided into treatment and control groups n=5 mice/group). CBP may be dissolved in saline, and DHA may be dissolved in cremophor EL:ethanol:saline (5:5:90, v/v/v). DHA may be administered via i.p. injection at doses of 10 and 25 mg/kg/5 days/week for 3 weeks) alone or combined with CBP (at a single dose of 120 mg/kg, once on day 0). The control group receives saline only. Mice may be killed on day 18. Tumors may be carefully excised, trimmed of extraneous fat or connective tissue, and homogenized in RIPA buffer (100 mg tumor tissue/1 ml RIPA) and prepared for immunoblotting analysis as described above.

In the next data set the test system is HepG2 cells. The data set is described as follows: Annexin V-FITC apoptosis assay, HepG2. It is filed as cell-based, human. The method, then:
ART- and DHA-induced apoptosis alone or in combination with gemcitabine in HepG2 and Hep3B cells or in combination with carboplatin in ovarian cancer cells may be determined by flow cytometry using the Annexin V-FITC Apoptosis Detection kit following the manufacturer's instructions. Briefly, 2×10^5 cells may be treated with ART and DHA ([…]) or 10 μg/L gemcitabine for 48 h. The cells may then be harvested, washed in PBS, and incubated with Annexin V and propidium iodide for staining in binding buffer at room temperature for 10 min in the dark. The stained cells may be analyzed using the FACSAria instrument.

As to `C[C@H]1[C@@H](O)O[C@@H]2O[C@@]3(C)CC[C@H]4[C@H](C)CC[C@@H]1[C@@]24OO3` [DHA, dihydroartemisinin], in the data set with A2780 cells, the “increase in apoptosis versus control” value came out at 17 fold. Further, the tumor growth inhibition amounted to 24% with A2780 xenograft tumors (DHA 10 mg/kg i.p., vs saline control) and 41% in the data set with A2780 xenograft tumors (DHA 25 mg/kg i.p.). Besides, the “host toxicity based on observation of body weight” value with A2780 xenograft tumors (mice bearing A2780 or OVCAR-3 xenografts) is on record as “No other host toxicities are observed”.

For `C[C@@H]1CC[C@H]2[C@@H](C)C(=O)O[C@@H]3O[C@@]4(C)CC[C@@H]1[C@]32OO4` [ART, artemisinin], the apoptotic cells in the data set with HepG2 cells (HepG2, 1 μmol/L, 48 h (0 μmol/L: 7%)) worked out at 9%; in the data set with HepG2 cells (HepG2, 10 μmol/L, 48 h), 14.95%; in the data set on HepG2 cells (HepG2, 25 μmol/L, 48 h), 15.45%; in the data set on HepG2 cells (HepG2, 50 μmol/L, 48 h), 16.45%.
